Measurements reported in ChEMBL document CHEMBL5344465, “Innovations in Pharmacology: Enhancing Bioavailability and Efficacy through Novel Compositions” (ACS Med Chem Lett, 2024).
Calls of active or inactive are those of the source.

Experiments:
Assay type in all cases: functional, cell-based
A 172 [1] = assay: Neuroprotective activity against human A-172 cells assessed as effect on GABA level
A 172 [2] = assay: Neuroprotective activity against human A-172 cells assessed as effect on BDNF level
[3] = tested on: Small intestinal epithelial cell; assay: Antiinflammatory activity against TNFalpha/INFgamma induced human small intestinal epithelial cells assessed as reduction in COX-2 level
[4] = tested on: Small intestinal epithelial cell; assay: Antiinflammatory activity against TNFalpha/INFgamma induced human small intestinal epithelial cells assessed as reduction in IL-6 level

Measured: Activity

C=CCc1ccc(O)c(OC)c1
active: all assays above

CN(C)CCc1c[nH]c2cccc(OP(=O)(O)O)c12
active: all assays above
